Numbers after ± are expanded uncertainties.
Tests used:
[1] = for Glass transition temperature: DSC; for Normal melting temperature: Crystal 1, DTA
[2] = Molar enthalpy of transition or fusion; details: Crystal 1; DSC

Row | SMILES | Glass transition temperature [1] [°C] | Normal melting temperature [1] [°C] | Molar enthalpy of transition or fusion [2] [kcal/mol]
1 | CCCC[N+]1(C)CCCCC1.O=S(=O)([N-]S(=O)(=O)C(F)(F)F)C(F)(F)F | -72.00 ± 2 |  | 
2 | COP(=O)([O-])OC.Cn1cc[n+](C)c1 [1,3-dimethylimidazolium dimethylphosphate] | -63.00 ± 2 |  | 
3 | CCCC[N+]1(C)CCCCC1.O=S(=O)([O-])C(F)(F)F [1-butyl-1-methylpiperidinium trifluoromethanesulfonate] |  | 36.00 ± 2 | 5.5 ± 0.478
4 | CCCCn1cc[n+](C)c1.O=S(=O)([O-])C(F)(F)F [1-butyl-3-methylimidazolium trifluoromethanesulfonate] |  | 18.00 ± 2 | 6.21 ± 0.717
5 | CCN(C)CC.CS(=O)(=O)O [diethylmethylammonium methanesulfonate] |  | 39.00 ± 2 | 3.35 ± 0.478
6 | CC[NH+](C)CC.O=S(=O)([O-])C(F)(F)F [diethylmethylammonium trifluoromethanesulfonate] |  | -5.00 ± 2 | 4.06 ± 0.478

— the NIST ThermoML archive (doi:10.1016/j.jct.2018.06.014)
